pEC50, pIC50, pKi: −log10 of the molar value.
Tests used:
[1] = molecular target: T1, Neuropeptide Y receptor type 5 (Rattus norvegicus, UniProt Q63634); experiment: The compound was tested for the binding affinity against Neuropeptide Y receptor type 5 in rat
T1 sequence (Q63634 whole entry): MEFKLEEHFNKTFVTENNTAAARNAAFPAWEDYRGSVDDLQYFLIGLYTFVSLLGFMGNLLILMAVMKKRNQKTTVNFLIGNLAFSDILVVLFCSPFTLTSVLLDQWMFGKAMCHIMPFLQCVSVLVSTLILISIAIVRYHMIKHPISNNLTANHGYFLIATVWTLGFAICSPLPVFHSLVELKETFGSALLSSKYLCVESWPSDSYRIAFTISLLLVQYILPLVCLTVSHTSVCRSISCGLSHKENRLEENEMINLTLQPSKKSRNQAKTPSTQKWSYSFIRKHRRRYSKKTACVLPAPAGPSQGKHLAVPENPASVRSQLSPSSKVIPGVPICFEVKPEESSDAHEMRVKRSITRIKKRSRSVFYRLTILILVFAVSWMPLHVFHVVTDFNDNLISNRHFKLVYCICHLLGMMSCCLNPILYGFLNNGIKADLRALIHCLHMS

[2] = molecular target: T2, Beta-3 adrenergic receptor (Homo sapiens, UniProt P13945); experiment: Binding affinity towards Beta-3 adrenergic receptor
Target sequence in this assay (P13945 whole entry): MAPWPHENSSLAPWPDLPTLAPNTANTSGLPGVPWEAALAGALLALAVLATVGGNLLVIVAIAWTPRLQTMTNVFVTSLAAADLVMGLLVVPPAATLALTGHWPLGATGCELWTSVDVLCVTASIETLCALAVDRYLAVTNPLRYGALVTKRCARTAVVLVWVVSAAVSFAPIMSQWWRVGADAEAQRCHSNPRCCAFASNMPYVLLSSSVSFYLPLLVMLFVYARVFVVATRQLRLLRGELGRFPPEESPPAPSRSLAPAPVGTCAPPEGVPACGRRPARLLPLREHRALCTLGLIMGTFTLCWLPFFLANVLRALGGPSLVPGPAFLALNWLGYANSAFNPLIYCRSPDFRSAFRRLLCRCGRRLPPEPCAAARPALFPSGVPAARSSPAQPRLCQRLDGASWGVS

[3] = molecular target: T2, Beta-3 adrenergic receptor; experiment: Beta-3 adrenergic receptor intrinsic activity relative to isoproterenol
Target sequence in this assay (P13945 whole entry, looked up): as the sequence (P13945 whole entry) above

[4] = molecular target: T3, Neuropeptide Y receptor type 1 (Homo sapiens, UniProt P25929); experiment: The compound was tested for the binding affinity against Neuropeptide Y receptor type 1
T3 sequence (P25929 whole entry): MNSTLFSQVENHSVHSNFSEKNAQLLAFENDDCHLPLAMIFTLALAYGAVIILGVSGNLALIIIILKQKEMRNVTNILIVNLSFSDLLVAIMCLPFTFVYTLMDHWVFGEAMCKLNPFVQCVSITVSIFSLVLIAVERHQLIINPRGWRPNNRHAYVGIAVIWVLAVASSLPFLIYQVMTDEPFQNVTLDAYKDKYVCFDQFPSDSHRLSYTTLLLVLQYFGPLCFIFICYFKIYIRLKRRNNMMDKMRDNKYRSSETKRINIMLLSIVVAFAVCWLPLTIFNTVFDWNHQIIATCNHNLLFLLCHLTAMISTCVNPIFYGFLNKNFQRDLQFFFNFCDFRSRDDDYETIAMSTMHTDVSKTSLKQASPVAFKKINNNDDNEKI

Rhesus monkey [5] = experiment: Effective dose to stimulate lipolysis in Rhesus monkeys (iv); assay type: functional, Cercopithecidae; conditions: Macaca mulatta
[6] = molecular target: T4, Neuropeptide Y receptor type 1 (Rattus norvegicus, UniProt P21555); experiment: The compound was tested for the binding affinity against Neuropeptide Y receptor type 1 in rat
T4 sequence (P21555 whole entry): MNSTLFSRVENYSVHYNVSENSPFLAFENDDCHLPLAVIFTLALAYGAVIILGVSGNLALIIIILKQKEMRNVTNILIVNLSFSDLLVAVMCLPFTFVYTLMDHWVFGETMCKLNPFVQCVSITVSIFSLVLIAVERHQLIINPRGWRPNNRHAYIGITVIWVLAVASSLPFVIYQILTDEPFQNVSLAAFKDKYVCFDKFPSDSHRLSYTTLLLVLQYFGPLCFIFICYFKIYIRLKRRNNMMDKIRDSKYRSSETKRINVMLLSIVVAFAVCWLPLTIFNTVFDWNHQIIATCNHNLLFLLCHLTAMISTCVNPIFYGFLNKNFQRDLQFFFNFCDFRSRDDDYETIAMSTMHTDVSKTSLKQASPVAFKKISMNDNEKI

[7] = Oral bioavailability of the compound.; assay type: ADME, organism-based; conditions: in vivo
[8] = molecular target: T2, Beta-3 adrenergic receptor; experiment: Binding affinity towards human Beta-3 adrenergic receptor
Target sequence in this assay (P13945 whole entry): as the sequence (P13945 whole entry) above

[9] = Bioavailability in dog; assay type: ADME, organism-based, Canis lupus familiaris; conditions: in vivo
[10] = Bioavailability in rat; assay type: ADME, organism-based; conditions: in vivo, read-out: Bioavailabiility
Rhesus monkey [11] = experiment: Effective dose to stimulate lipolysis in Rhesus monkeys(iv); assay type: functional, Cercopithecidae; conditions: Macaca mulatta
[12] = molecular target: T5, Neuropeptide Y receptor type 2 (Rattus norvegicus, UniProt Q9ERC0); experiment: The compound was tested for the binding affinity against Neuropeptide Y receptor type 2
T5 sequence (Q9ERC0 whole entry): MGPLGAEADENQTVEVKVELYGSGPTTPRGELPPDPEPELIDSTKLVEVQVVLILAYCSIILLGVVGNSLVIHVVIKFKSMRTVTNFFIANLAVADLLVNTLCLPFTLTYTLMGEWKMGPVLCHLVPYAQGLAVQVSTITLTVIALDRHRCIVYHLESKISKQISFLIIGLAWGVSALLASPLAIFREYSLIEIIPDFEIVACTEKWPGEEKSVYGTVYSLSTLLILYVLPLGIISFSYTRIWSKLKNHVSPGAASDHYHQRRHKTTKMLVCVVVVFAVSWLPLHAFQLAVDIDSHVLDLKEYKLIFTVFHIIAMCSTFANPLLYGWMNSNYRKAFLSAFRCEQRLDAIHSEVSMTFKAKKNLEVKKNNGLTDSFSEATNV

[13] = molecular target: T4, Neuropeptide Y receptor type 1; experiment: The compound was tested for the binding affinity against NPY1 (Neuropeptide Y receptor type 1)
[14] = molecular target: Neuropeptide Y receptor type 4 (Rattus norvegicus, UniProt Q63447); experiment: The compound was tested for the binding affinity against Neuropeptide Y receptor type 4
Chain of Neuropeptide Y receptor type 4 (Q63447 whole entry): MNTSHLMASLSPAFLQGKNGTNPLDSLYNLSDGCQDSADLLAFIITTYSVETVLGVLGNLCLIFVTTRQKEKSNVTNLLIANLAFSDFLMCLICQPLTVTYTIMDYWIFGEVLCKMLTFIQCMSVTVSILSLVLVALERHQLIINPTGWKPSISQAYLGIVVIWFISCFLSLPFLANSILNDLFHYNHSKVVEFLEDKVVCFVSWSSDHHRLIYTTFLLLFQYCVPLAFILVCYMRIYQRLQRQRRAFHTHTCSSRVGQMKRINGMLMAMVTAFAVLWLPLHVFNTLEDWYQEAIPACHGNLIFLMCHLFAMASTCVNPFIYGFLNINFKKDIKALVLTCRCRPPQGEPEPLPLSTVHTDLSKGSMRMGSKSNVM

[15] = molecular target: T6, Cholecystokinin receptor type A (Mus musculus, UniProt O08786); experiment: Binding affinity in Cholecystokinin type A receptor binding assay […]
T6 sequence (O08786 whole entry): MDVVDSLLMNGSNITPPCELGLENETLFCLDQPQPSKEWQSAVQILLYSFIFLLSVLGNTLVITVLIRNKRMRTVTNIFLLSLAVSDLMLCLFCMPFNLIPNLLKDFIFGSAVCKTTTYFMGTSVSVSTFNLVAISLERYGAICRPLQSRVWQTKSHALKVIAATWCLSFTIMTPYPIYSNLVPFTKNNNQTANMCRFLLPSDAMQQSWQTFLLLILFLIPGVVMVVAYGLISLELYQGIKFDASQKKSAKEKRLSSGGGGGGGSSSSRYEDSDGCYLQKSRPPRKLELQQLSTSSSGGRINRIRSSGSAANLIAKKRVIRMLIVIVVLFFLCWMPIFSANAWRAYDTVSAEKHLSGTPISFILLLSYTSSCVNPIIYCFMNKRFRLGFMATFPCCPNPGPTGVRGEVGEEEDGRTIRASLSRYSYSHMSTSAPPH

Rattus norvegicus = experiment: Ability to inhibit the food intake of Sprague-Dawley rats at 30 mg/kg after intraperitoneal administration.; assay type: functional; conditions: ip
[16] = Bioavailability in dogs; assay type: ADME, organism-based, Canis lupus familiaris; conditions: dog, in vivo; read-out: Bioavailabiility
[17] = Oral bioavailability in rat; assay type: ADME, organism-based; conditions: in vivo

Cc1cc(N2CCCC2)cc(/C=C/c2cccc(C(F)(F)F)c2)n1
pIC50 [1]: 8.39

C[C@H](Cc1ccc(OCP(=O)(O)c2ccccc2)cc1)NC[C@H](O)COc1ccc(O)c(NS(C)(=O)=O)c1
pEC50 [2]: > 6.52
Intrinsic activity [3]: > 80%

CC[C@H]1CC[C@@](c2cccc(OCOC)c2)(N2CCN(c3ccccc3)CC2)CC1
pIC50 [4]: 7.41

Nc1ccc(OC[C@@H](O)CNCCc2ccc(NS(=O)(=O)c3ccc(I)cc3)cc2)cn1
ED50 (Rhesus monkey [5]): 0.8 mg/kg

Clc1ccc(OCc2nc3c(OCCCN4CCCCC4)cccc3n2CCCC2CCCNC2)cc1 (configuration not stated)
pIC50 [6]: 8.77

CCCCCCNC(=O)Nc1ccc(S(=O)(=O)Nc2ccc(CCNC[C@H](O)COc3ccc(O)cc3)cc2)cc1 [L-755507]
bioavailability [7]: 1%

COc1ccc(-c2cc(NC(=O)Cc3ccc4ccccc4c3)[nH]n2)cc1OC
pIC50 [1]: 8.08

COc1ccc(-c2cc(NC(=O)CC34CCCC3Cc3ccccc3C4)[nH]n2)cc1OC (configuration not stated)
pIC50 [1]: 8.64

CS(=O)(=O)Nc1cc([C@@H](O)CN[C@H](Cc2cccc(Cl)c2)c2ccc(OC(F)F)cc2)ccc1O
pKi [8]: 8.05

CC(C)(Cc1ccc(Oc2ccc(C(N)=O)cn2)cc1)NC[C@H](O)COc1cccc2[nH]c(=O)[nH]c12
pEC50 [8]: 7.52

CC(C)c1ccc(S(=O)(=O)Nc2ccc(CCNC[C@H](O)COc3ccc(N)nc3)cc2)cc1
F [9]: 41%
bioavailability [9]: 47%
bioavailability [10]: 4%

CCCCCCP(=O)(O)COc1ccc(C[C@@H](C)NC[C@H](O)COc2ccc(O)c3c2CCC(=O)N3)cc1
pEC50 [2]: > 6.52
Intrinsic activity [3]: > 80%

O=S(=O)(Nc1ccc(CCNC[C@H](O)COc2cccnc2)cc1)c1ccc(I)cc1 [L-749372]
bioavailability [9]: 47%
ED50 (Rhesus monkey [11]): 2 mg/kg

O=C(CN1CCC(n2c(=O)[nH]c3ccccc32)CC1)Nc1ccc2c(c1)-c1ccccc1C2=O
pIC50 [12]: < 5.30
pIC50 [13]: < 5.30
pIC50 [14]: < 5.30

CCCCNC(=O)[C@@H]1Cc2ccccc2N1C(=O)CC(N)CC (some centres not stated)
pKi [15]: 8.15

CN(C)CCCNc1nc(NC[C@H]2CC[C@H](CNS(=O)(=O)c3cccc4ccccc34)CC2)nc2ccccc12
inhibition in vivo at 30 mg/kg (Rattus norvegicus): 96%

O=S(=O)(Nc1ccc(CCNC[C@H](O)c2cccnc2)cc1)c1ccc(I)cc1
bioavailability [16]: 51%

Cn1c(C(=O)O)cc2cc(OCCNC[C@H](O)c3ccc(N)nc3)ccc21
bioavailability [10]: < 10%
pEC50 [8]: 6.52

COc1ccc(N(C(=O)CN2C(=O)C(Cc3n[nH]c4ccccc34)C(=O)N(c3ccccc3)c3ccccc32)C(C)C)cc1 (configuration not stated)
bioavailability [17]: 8%

From ChEMBL document CHEMBL1132409, “Pharmacological treatment of obesity: therapeutic strategies” (J Med Chem, 1999)
